# Test results from US12421211B2, “Heterocyclic compounds” (Hoffmann-La Roche Inc., priority 2021, dated 2025).
# Where a name gives a salt, the structure may show the parent alone.
# System: Acinetobacter baumannii ATCC17961
# Assay: Antimicrobial susceptibility testing: 90% growth inhibitory concentration (IC90) determination
# Assay type: cell-based
# Conditions: Acinetobacter baumannii, ATCC17961, 16 h, 90% growth inhibitory concentration, Acinetobacter baumannii ATCC17961, Iso-Sensitest broth, OD 600 nm over 16 h; read-out: ATCC 17961 IC90
# Outline: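 A. baumannii ATCC17961 at ~5×10^5 CFU/ml in Iso-Sensitest broth exposed to 10-point twofold dilutions (e.g. 50–0.097 μM final), 35±2° C. OD600 read every 20 minutes over 16h; IC50 and IC90 derived from inhibition during logarithmic growth.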
row,SMILES,IC90 [nM]
1,"Cc1n[nH]cc1-c1ccc(-c2cnc(C(=O)Nc3ccc(C(=O)N4CCN(C(=O)C[N+]5(C)CCCC5)CC4)c(Cl)c3)n2C)c(F)c1F [Example D15, N-[3-chloro-4-[4-[2-(1-methylpyrrolidin-1-ium-1-yl)acetyl]piperazine-1-carbonyl]phenyl]-5-[2,3-difluoro-4-(3-methyl-1H-pyrazol-4-yl)phenyl]-1-methyl-imidazole-2-carboxamide; formate]",100
2,"Cc1n[nH]cc1-c1ccc(-c2cnc(C(=O)Nc3ccc(C(=O)N4CCN(C(=O)C5CC[N+](C)(C)CC5)CC4)c(Cl)c3)n2C)c(F)c1F [Example D16, N-[3-chloro-4-[4-(1,1-dimethylpiperidin-1-ium-4-carbonyl)piperazine-1-carbonyl]phenyl]-5-[2,3-difluoro-4-(3-methyl-1H-pyrazol-4-yl)phenyl]-1-methyl-imidazole-2-carboxamide; formate]",150
3,"COCCn1cc(-c2ccc(-c3cnc(C(=O)Nc4ccc(C(=O)N5CCN(C(=O)CC6(O)CC[N+](C)(C)CC6)CC5)c(Cl)c4)n3C)c(F)c2F)c(C)n1 [Example D17, N-[3-chloro-4-[4-[2-(4-hydroxy-1,1-dimethyl-piperidin-1-ium-4-yl)acetyl]piperazine-1-carbonyl]phenyl]-5-[2,3-difluoro-4-[1-(2-methoxyethyl)-3-methyl-pyrazol-4-yl]phenyl]-1-methyl-imidazole-2-carboxamide; formate]",260
4,"COCCn1ncc(-c2ccc(-c3cnc(C(=O)Nc4ccc(C(=O)N5CCN(C(=O)C6(N)CC[N+](C)(C)CC6)CC5)c(Cl)c4)n3C)c(F)c2F)c1C [Example D20, N-[4-[4-(4-amino-1,1-dimethyl-piperidin-1-ium-4-carbonyl)piperazine-1-carbonyl]-3-chloro-phenyl]-5-[2,3-difluoro-4-[1-(2-methoxyethyl)-5-methyl-pyrazol-4-yl]phenyl]-1-methyl-imidazole-2-carboxamide; formate]",64
5,"Cc1n[nH]cc1-c1ccc(-c2cnc(C(=O)Nc3ccc(C(=O)N4CCC(CN5CC[N+](C)(C)CC5=O)CC4)c(Cl)c3)n2C)c(F)c1F [Example D21, N-[3-chloro-4-[4-[(4,4-dimethyl-2-oxo-piperazin-4-ium-1-yl)methyl]piperidine-1-carbonyl]phenyl]-5-[2,3-difluoro-4-(3-methyl-1H-pyrazol-4-yl)phenyl]-1-methyl-imidazole-2-carboxamide; formate]",200
6,"COCCn1cc(-c2ccc(-c3cnc(C(=O)Nc4ccc(C(=O)N5CCC(NC(=O)[C@@H]6C[C@@H](O)CN6)CC5)c(Cl)c4)n3C)c(F)c2F)c(C)n1 [Example D23, N-[3-chloro-4-[4-[[(2S,4R)-4-hydroxypyrrolidine-2-carbonyl]amino]piperidine-1-carbonyl]phenyl]-5-[2,3-difluoro-4-[1-(2-methoxyethyl)-3-methyl-pyrazol-4-yl]phenyl]-1-methyl-imidazole-2-carboxamide; formic acid]",680
7,"COCCn1ncc(-c2ccc(-c3cnc(C(=O)Nc4ccc(C(=O)N5CCN(C(=O)C6(O)CCNCC6)CC5)c(Cl)c4)n3C)c(F)c2F)c1C [Example D24, N-[3-chloro-4-[4-(4-hydroxypiperidine-4-carbonyl)piperazine-1-carbonyl]phenyl]-5-[2,3-difluoro-4-[1-(2-methoxyethyl)-5-methyl-pyrazol-4-yl]phenyl]-1-methyl-imidazole-2-carboxamide; formic acid]",73
8,"COCCn1ncc(-c2ccc(-c3cnc(C(=O)Nc4ccc(C(=O)N5CCN(C(=O)C6CCNCC6O)CC5)c(Cl)c4)n3C)c(F)c2F)c1C (centres unmarked) [Example D25, N-[3-chloro-4-[4-(3-hydroxypiperidine-4-carbonyl)piperazine-1-carbonyl]phenyl]-5-[2,3-difluoro-4-[1-(2-methoxyethyl)-5-methyl-pyrazol-4-yl]phenyl]-1-methyl-imidazole-2-carboxamide; formic acid]",51
9,"COCCn1ncc(-c2ccc(-c3cnc(C(=O)Nc4ccc(C(=O)N5CCN(C(=O)[C@@H]6CCC(=O)N6)CC5)c(Cl)c4)n3C)c(F)c2F)c1C [Example D26, N-[3-chloro-4-[4-[(2S)-5-oxopyrrolidine-2-carbonyl]piperazine-1-carbonyl]phenyl]-5-[2,3-difluoro-4-[1-(2-methoxyethyl)-5-methyl-pyrazol-4-yl]phenyl]-1-methyl-imidazole-2-carboxamide; 2,2,2-trifluoroacetic acid]",190
10,"COCCn1ncc(-c2ccc(-c3cnc(C(=O)Nc4ccc(C(=O)N5CCN(C(=O)C6CCNC(=O)C6)CC5)c(Cl)c4)n3C)c(F)c2F)c1C (centres unmarked) [Example D27, N-[3-chloro-4-[4-(2-oxopiperidine-4-carbonyl)piperazine-1-carbonyl]phenyl]-5-[2,3-difluoro-4-[1-(2-methoxyethyl)-5-methyl-pyrazol-4-yl]phenyl]-1-methyl-imidazole-2-carboxamide; 2,2,2-trifluoroacetic acid]",230
11,"COCCn1ncc(-c2ccc(-c3cnc(C(=O)Nc4ccc(C(=O)N5CCN(C(=O)CN6CCCC6)CC5)c(Cl)c4)n3C)c(F)c2F)c1C [Example D28, N-[3-chloro-4-[4-(2-pyrrolidin-1-ylacetyl)piperazine-1-carbonyl]phenyl]-5-[2,3-difluoro-4-[1-(2-methoxyethyl)-5-methyl-pyrazol-4-yl]phenyl]-1-methyl-imidazole-2-carboxamide; 2,2,2-trifluoroacetic acid]",30
12,"COCCn1ncc(-c2ccc(-c3cnc(C(=O)Nc4ccc(C(=O)N5CCN(C(=O)C67CC(N)(C6)C7)CC5)c(Cl)c4)n3C)c(F)c2F)c1C [Example D30, N-[4-[4-(3-aminobicyclo[1.1.1]pentane-1-carbonyl)piperazine-1-carbonyl]-3-chloro-phenyl]-5-[2,3-difluoro-4-[1-(2-methoxyethyl)-5-methyl-pyrazol-4-yl]phenyl]-1-methyl-imidazole-2-carboxamide; 2,2,2-trifluoroacetic acid]",240
13,"COCCn1cc(-c2ccc(-c3cnc(C(=O)Nc4ccc(C(=O)N5CCN(C(=O)[C@@H]6C[C@@H](O)CN6)CC5)c(Cl)c4)n3C)c(F)c2F)c(C)n1 [Example D31, N-[3-chloro-4-[4-[(2S,4R)-4-hydroxypyrrolidine-2-carbonyl]piperazine-1-carbonyl]phenyl]-5-[2,3-difluoro-4-[1-(2-methoxyethyl)-3-methyl-pyrazol-4-yl]phenyl]-1-methyl-imidazole-2-carboxamide; formic acid]",220

# Next, values leading:
row,IC90 [nM],SMILES
1,52,"COCCn1ncc(-c2ccc(-c3cnc(C(=O)Nc4ccc(C(=O)N5CCN(C(=O)CN(C)C)CC5)c(Cl)c4)n3C)c(F)c2F)c1C [Example D32, N-[3-chloro-4-[4-[2-(dimethylamino)acetyl]piperazine-1-carbonyl]phenyl]-5-[2,3-difluoro-4-[1-(2-methoxyethyl)-5-methyl-pyrazol-4-yl]phenyl]-1-methyl-imidazole-2-carboxamide; 2,2,2-trifluoroacetic acid]"
2,210,"COCCn1ncc(-c2ccc(-c3cnc(C(=O)Nc4ccc(C(=O)NCC5CCN(C(=O)CN(C)C)CC5)c(Cl)c4)n3C)c(F)c2F)c1C [Example D33, N-[3-chloro-4-[[1-[2-(dimethylamino)acetyl]-4-piperidyl]methylcarbamoyl]phenyl]-5-[2,3-difluoro-4-[1-(2-methoxyethyl)-5-methyl-pyrazol-4-yl]phenyl]-1-methyl-imidazole-2-carboxamide; 2,2,2-trifluoroacetic acid]"
3,110,"Cc1n[nH]cc1-c1ccc(-c2cnc(C(=O)Nc3ccc(C(=O)N4CCN(C(=O)CN(C)C)CC4)c(Cl)c3)n2C)c(F)c1F [Example D34, N-[3-chloro-4-[4-[2-(dimethylamino)acetyl]piperazine-1-carbonyl]phenyl]-5-[2,3-difluoro-4-(3-methyl-1H-pyrazol-4-yl)phenyl]-1-methyl-imidazole-2-carboxamide; formic acid]"
4,170,"Cc1n[nH]cc1-c1ccc(-c2cnc(C(=O)Nc3ccc(C(=O)N4CCN(C(=O)C[N+](C)(C)C)CC4)c(Cl)c3)n2C)c(F)c1F [Example D35, [2-[4-[2-chloro-4-[[5-[2,3-difluoro-4-(3-methyl-1H-pyrazol-4-yl)phenyl]-1-methyl-imidazole-2-carbonyl]amino]benzoyl]piperazin-1-yl]-2-oxo-ethyl]-trimethyl-ammonium; formate]"
5,88,"Cc1n[nH]cc1-c1ccc(-c2cnc(C(=O)Nc3ccc(C(=O)N4CCN(C(=O)[C@@H]5C[C@@H](O)CN5)CC4)c(Cl)c3)n2C)c(F)c1F [Example D36, N-[3-chloro-4-[4-[(2S,4R)-4-hydroxypyrrolidine-2-carbonyl]piperazine-1-carbonyl]phenyl]-5-[2,3-difluoro-4-(3-methyl-1H-pyrazol-4-yl)phenyl]-1-methyl-imidazole-2-carboxamide]"
6,150,"COCCn1ncc(-c2ccc(-c3cnc(C(=O)Nc4ccc(C(=O)N5CCC(NS(=O)(=O)C6CC[N+](C)(C)CC6)CC5)c(Cl)c4)n3C)c(F)c2F)c1C [Example D37, N-[3-chloro-4-[4-[(1,1-dimethylpiperidin-1-ium-4-yl)sulfonylamino]piperidine-1-carbonyl]phenyl]-5-[2,3-difluoro-4-[1-(2-methoxyethyl)-5-methyl-pyrazol-4-yl]phenyl]-1-methyl-imidazole-2-carboxamide; formate]"
7,150,"COCCn1nc(C)c(-c2ccc(-c3cnc(C(=O)Nc4ccc(C(=O)N[C@H]5[C@@H]6CN(C(=O)[C@@H]7C[C@@H](O)C[N+]7(C)C)C[C@@H]65)c(Cl)c4)n3C)c(F)c2F)c1C [Example D38, N-[3-chloro-4-[[(1R,5S)-3-[(2S,4R)-4-hydroxy-1,1-dimethyl-pyrrolidin-1-ium-2-carbonyl]-3-azabicyclo[3.10]hexan-6-yl]carbamoyl]phenyl]-5-[2,3-difluoro-4-[1-(2-methoxyethyl)-3,5-dimethyl-pyrazol-4-yl]phenyl]-1-methyl-imidazole-2-carboxamide; formate]"
